{
  "source": "patent US20260184807A1",
  "about": "“Methods for Treating Rheumatoid Arthritis Using a Syndecan-1 Inhibitor or Syntenin-1 Inhibitor” (The United States Government as represented by the …, priority 2022, published 2026)",
  "test_system": "HUVECs",
  "test": "Metabolite quantification in Syntenin-1 treated HUVECs (colorimetric assay)",
  "format": "cell-based, human",
  "details": "Syntenin-1 1000 ng/ml 24 h, HIF1αi 2 μM, mTORi 1 μM, FIGS. 13I-K",
  "method": "HUVECs were treated with 20 Syntenin-1 (1000 ng/ml) for 0-60 mins to detect expression of GLUT1. HK2. PFK2, cMYC. HIF1α, and LDHA (FIG. 13B) or 0-48 h to detect HK2, PFK2, mTOR/RAPTOR and LDHA (FIG. 13C) and actin was visualized as equal loading, (n=3). HUVECs were treated with PBS or Syntenin-1 (1000 ng/ml) in the presence or absence of 2-DG (5 mM), cMYCi (50 μM) and/or mTORi (1 μM) or HIF1αi (2 μM) to quantify transcription of HIF1α (FIG. 13E, n=10), RAPTOR (FIG. 13F, n=7). TNF (FIG. 13H, n=5). […] HUVECs were treated with PBS or Syntenin-1 (1000 ng/ml) in the presence or absence of SDC-1 Ab (SDCab: 1:100). […] Data are presented as mean±SEM; significant differences were determined by the Mann-Whitney test, 2way ANOVA, or one-way ANOVA. *p<0.05. **p<0.01, ***p<0.001, ****p<0.0001.\nFIGS. 20A-F show blood Syntenin-1 and SDC-1 relative levels are unaffected by RA therapy and glycolytic metabolites can modulate inflammatory factors and oxidative metabolites in Syntenin-1 reprogrammed endothelial cells. Relative expression of Syntenin-1 (FIG. 20A) or SDC-1 (FIG. 20B) was determined by RNAseq (Lewis M J, et al. Cell reports. 2019; 28:2455-2470 e2455) in blood from RA non-responsive (Non-R)(ΔDAS28≤0.6, n=16) or those with moderate (ΔDAS28≤1.2 & >0.6, n=22) or good response (ΔDAS28>1.2, n=21). […]\nMetabolite quantification. […]",
  "data": [
    {"smiles": "CO[C@H]1C[C@@H]2CC[C@@H](C)[C@@](O)(O2)C(=O)C(=O)N2CCCC[C@H]2C(=O)O[C@H]([C@H](C)C[C@@H]2CC[C@@H](OCCO)[C@H](OC)C2)CC(=O)[C@H](C)/C=C(\\C)[C@@H](O)[C@@H](OC)C(=O)[C@H](C)C[C@H](C)/C=C/C=C/C=C/1C", "note": "[mTORi, Everolimus]", "values": [
      {"measurement": "oxidative metabolites, AMPK, PGC-1a, and citrate", "value": "unchanged"}
    ]}
  ]
}
